In this experiment the target is T1, recombinant human 17β-HSD1 (Homo sapiens, UniProt P14061).
T1 construct: made in house; host or cells: Sf9 insect cells (baculovirus, Bac to Bac Expression System); microsomal fraction used
T1 sequence (P14061 1-328): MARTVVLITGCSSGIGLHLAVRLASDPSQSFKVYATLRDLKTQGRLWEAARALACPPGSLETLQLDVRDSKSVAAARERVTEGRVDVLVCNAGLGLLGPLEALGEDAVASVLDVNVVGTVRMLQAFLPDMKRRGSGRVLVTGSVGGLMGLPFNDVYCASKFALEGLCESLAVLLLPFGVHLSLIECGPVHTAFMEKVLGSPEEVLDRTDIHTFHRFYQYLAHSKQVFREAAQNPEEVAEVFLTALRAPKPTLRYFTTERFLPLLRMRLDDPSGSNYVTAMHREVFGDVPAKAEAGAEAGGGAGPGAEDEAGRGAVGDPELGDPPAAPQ
The experiment can be described thus: Inhibition of recombinant human 17β-HSD1 (HPLC assay, conversion of 3H-estrone to estradiol). The class given is biochemical. The settings on record: 0.5 h, 30 nM 3H-estrone, 1 mM NADPH, 30 min RT, read-out: inhibition of rec. 17 β-HSD1; for inhibition at 0.1 µM: 100 nM inhibitor; for inhibition at 1 µM: 1 μM inhibitor. As for the experimental part: 17β-HSD1 purification: Recombinant baculovirus was generated by the “Bac to Bac Expression System” (Invitrogen). Recombinant bacmid was transfected to Sf9 insect cells using “Cellfectin Reagent” (Invitrogen). 60 h later cells were harvested; the microsomal fraction was isolated as described by Puranen et al. (1994). Aliquots were stored frozen until determination of enzymatic activity. Assay—Inhibition of recombinant human 17β-HSD1: Recombinant protein (0.1 μg/ml) was incubated in 20 mM KH2PO4 pH 7.4 with 30 nM 3H-estrone and 1 mM NADPH for 30 min at RT, in the presence of potential inhibitors at concentrations of 1 μM or 0.1 μM. Inhibitor stock solutions were prepared in DMSO. Final concentration of DMSO was adjusted to 1% in all samples. The enzyme reaction was stopped by addition of 10% trichloroacetic acid (final concentration). Samples were centrifuged in a microtiter plate at 4000 rpm for 10 min. Supernatants were applied to reverse phase HPLC on a Waters Symmetry C18 column, equipped with a Waters Sentry Guard column. Isocratic HPLC runs were performed at RT at a flow rate of 1 ml/min of acetonitrile:water 48:52 as running solvent. Radioactivity was monitored in the eluate by a Packard Flow Scintillation Analyzer. Total radioactivity for estrone and estradiol were determined in each sample and percent conversion of estrone to estradiol was calculated according to the following formula: [formula] • Percent inhibition was calculated as follows: % inhibition=100−% conversion The values “% inhibition” were determined for exemplified compounds, and the results are summarized in table 4 (for 17β-HSD1).

The term inhibition denotes the drop in the measured response relative to a control, in per cent.

On to `COc1ccc2c(c1)CC[C@H]1[C@@H]3[C@H](CCCCn4cc(-c5ccc(C)cc5)nn4)CC(=O)[C@@]3(C)CC[C@H]21` [Compound 112], for which the inhibition at 0.1 µM amounted to 12% and the inhibition at 1 µM amounted to 43%.
Regarding `COc1ccc2c(c1)CC[C@H]1[C@@H]3[C@H](CCCn4cc(-c5ccccc5[N+](=O)[O-])nn4)CC(=O)[C@@]3(C)CC[C@H]21` [Compound 37], the inhibition at 0.1 µM amounted to 25% and the inhibition at 1 µM was 80%.
Consider `CC(C)CCc1cn(CCCCCC[C@@H]2CC(=O)[C@@]3(C)CC[C@@H]4c5ccc(O)cc5CC[C@H]4[C@H]23)nn1` [Compound 69], for which the inhibition at 0.1 µM worked out at 30% and the inhibition at 1 µM worked out at 64%.
As for `C[C@]12CC[C@@H]3c4ccc(O)cc4CC[C@H]3[C@@H]1[C@H](CCCCCCn1cc(-c3cccc(O)c3)nn1)CC2=O` [Compound 100], the inhibition at 0.1 µM came to 7% and the inhibition at 1 µM was 48%.
For `Cc1ccc(-c2cn(CCC[C@H]3CC(=O)[C@@]4(C)CC[C@@H]5c6ccc(O)cc6CC[C@H]5[C@H]34)nn2)cc1` [Compound 25, 3-Hydroxy-15α-[3-(4-p-tolyl-[1,2,3]triazol-1-yl)-propyl]-estra-1,3,5(10)-trien-17-one] the same measures were 49% and 85%.
For `COc1ccc(-c2cn(CCC[C@H]3CC(=O)[C@@]4(C)CC[C@@H]5c6ccc(O)cc6CC[C@H]5[C@H]34)nn2)cc1` [Compound 20, 3-Hydroxy-15α-{3-[4-(4-methoxy-phenyl)-[1,2,3]triazol-1-yl]-propyl}-estra-1,3,5(10)-trien-17-one] the same measures were 51% and 87%.
Turning to `C[C@]12CC[C@@H]3c4ccc(O)cc4CC[C@H]3[C@@H]1[C@@H](CCCn1cc(CCc3ccccc3)nn1)CC2=O` [Compound 16, 3-Hydroxy-15α-[3-(4-phenethyl-[1,2,3]triazol-1-yl)-propyl]-estra-1,3,5(10)-trien-17-one], the inhibition at 0.1 µM is 38% and the inhibition at 1 µM is 89%.
For the compound `C[C@]12CC[C@@H]3c4ccc(O)cc4CC[C@H]3[C@@H]1[C@H](CCCCn1cc(CCc3ccccc3)nn1)CC2=O` [Compound 33], the inhibition at 0.1 µM turned out to be 20% and the inhibition at 1 µM is 80%.
For `COc1ccc2c(c1)CC[C@H]1[C@@H]3[C@H](CCCn4cc(C5CC5)nn4)CC(=O)[C@@]3(C)CC[C@H]21` [Compound 41], the inhibition at 0.1 µM is 23% and the inhibition at 1 µM was 77%.
Turning to `COc1ccc2c(c1)CC[C@H]1[C@@H]3[C@H](CCCn4cc(-c5ccc(CO)cc5)nn4)CC(=O)[C@@]3(C)CC[C@H]21` [Compound 60], the inhibition at 0.1 µM came to 19% and the inhibition at 1 µM was 69%.
The matching figures for `COc1ccc2c(c1)CC[C@H]1[C@@H]3[C@H](CCCCn4cc(C5CC5)nn4)CC(=O)[C@@]3(C)CC[C@H]21` [Compound 111]: 4% and 43%.
For the compound `COc1ccc2c(c1)CC[C@H]1[C@@H]3[C@H](CCCCn4cc(CO)nn4)CC(=O)[C@@]3(C)CC[C@H]21` [Compound 122], the inhibition at 0.1 µM was found to be 5% and the inhibition at 1 µM turned out to be 38%.
Take `C[C@]12CC[C@@H]3c4ccc(O)cc4CC[C@H]3[C@@H]1[C@H](CCn1cc(-c3cc(F)cc(F)c3)nn1)CC2=O` [Compound 5, 3-Hydroxy-15β-{2-[4-(3,5-Difluoro-phenyl)-[1,2,3]triazol-1-yl]-ethyl}-estra-1,3,5(10)-trien-17-one]: the inhibition at 0.1 µM is 87% and the inhibition at 1 µM stood at 95%.
The matching figures for `CC(C)Cc1cn(CCCCCC[C@@H]2CC(=O)[C@@]3(C)CC[C@@H]4c5ccc(O)cc5CC[C@H]4[C@H]23)nn1` [Compound 58]: 20% and 70%.
For `CC(C)CCc1cn(CCCC[C@@H]2CC(=O)[C@@]3(C)CC[C@@H]4c5ccc(O)cc5CC[C@H]4[C@H]23)nn1` [Compound 48], the inhibition at 0.1 µM was 21% and the inhibition at 1 µM came to 73%.
On to `COc1ccc2c(c1)CC[C@H]1[C@@H]3[C@H](CCCn4cc(-c5ccsc5)nn4)CC(=O)[C@@]3(C)CC[C@H]21` [Compound 59], for which the inhibition at 0.1 µM came to 18% and the inhibition at 1 µM is 69%.

(Values after patent US8080540B2, “Therapeutically active triazoles and their use” (Abbott Products GmbH, priority 2006, dated 2011).)
